{"source": "PubChem BioAssay AID288", "about": "(DTP/NCI, 2004)", "system": "BDF1 mice, M5076 sarcoma s.c., survival/tumor T/C", "assay": "NCI In Vivo Anticancer Drug Screen. Data for tumor model Sarcoma M5076 (subcutaneous) in B6D2F1 (BDF1) mice", "experimental": "The antitumor activity of compounds was measured in mice bearing transplantable tumors. Survival or tumor size were measured and the results are expressed as the measurement made in the treated group (T) divided by the measurement made in the vehicle treated control group (C). The tumor model used in this assay is Sarcoma M5076 (subcutaneous) in B6D2F1 (BDF1) mice", "note": "Values joined by “and” are separate entries in the source; they are usually repeats but may differ in a detail not shown here. Equal values may be shown once. Inconclusive results are not listed.", "data": [{"smiles": "NC(CSC(c1ccccc1)(c1ccccc1)c1ccccc1)C(=O)O", "note": "(configuration not stated)", "values": [{"measurement": "T/C", "setting": "endpoint: mean tumor weight, dose: 17.5 mg/kg/injection, schedule: Q02DX011 (ip), vehicle: acid diluted with saline, higher = larger tumour", "result": "103 % of control"}, {"measurement": "T/C", "setting": "endpoint: mean tumor weight, dose: 17.5 mg/kg/injection, schedule: Q02DX011 (ip), vehicle: saline, higher = larger tumour", "result": "71 % of control"}, {"measurement": "T/C", "setting": "endpoint: mean tumor weight, dose: 35.0 mg/kg/injection, schedule: Q02DX011 (ip), vehicle: acid diluted with saline, higher = larger tumour", "result": "87 % of control"}, {"measurement": "T/C", "setting": "endpoint: mean tumor weight, dose: 35.0 mg/kg/injection, schedule: Q02DX011 (ip), vehicle: saline, higher = larger tumour", "result": "53 % of control"}, {"measurement": "T/C", "setting": "endpoint: mean tumor weight, dose: 70.0 mg/kg/injection, schedule: Q02DX011 (ip), vehicle: acid diluted with saline, higher = larger tumour", "result": "24 % of control"}, {"measurement": "T/C", "setting": "endpoint: mean tumor weight, dose: 70.0 mg/kg/injection, schedule: Q02DX011 (ip), vehicle: saline, higher = larger tumour", "result": "37 % of control"}, {"measurement": "T/C", "setting": "endpoint: median tumor weight (est.), dose: 17.5 mg/kg/injection, schedule: Q02DX011 (ip), vehicle: acid diluted with saline, higher = larger tumour", "result": "490 % of control"}, {"measurement": "T/C", "setting": "endpoint: median tumor weight (est.), dose: 17.5 mg/kg/injection, schedule: Q02DX011 (ip), vehicle: saline, higher = larger tumour", "result": "65 % of control"}, {"measurement": "T/C", "setting": "endpoint: median tumor weight (est.), dose: 35.0 mg/kg/injection, schedule: Q02DX011 (ip), vehicle: acid diluted with saline, higher = larger tumour", "result": "336 % of control"}, {"measurement": "T/C", "setting": "endpoint: median tumor weight (est.), dose: 35.0 mg/kg/injection, schedule: Q02DX011 (ip), vehicle: saline, higher = larger tumour", "result": "49 % of control"}, {"measurement": "T/C", "setting": "endpoint: median tumor weight (est.), dose: 70.0 mg/kg/injection, schedule: Q02DX011 (ip), vehicle: acid diluted with saline, higher = larger tumour", "result": "293 % of control"}, {"measurement": "T/C", "setting": "endpoint: median tumor weight (est.), dose: 70.0 mg/kg/injection, schedule: Q02DX011 (ip), vehicle: saline, higher = larger tumour", "result": "5 % of control"}]}, {"smiles": "Cc1c2ccncc2c(C)c2c1[nH]c1ccccc12", "values": [{"measurement": "T/C", "setting": "endpoint: mean tumor weight, dose: 12.5 mg/kg/injection, schedule: Q02DX011 (ip), vehicle: saline, higher = larger tumour", "result": "100 % of control"}, {"measurement": "T/C", "setting": "endpoint: mean tumor weight, dose: 12.5 mg/kg/injection, schedule: Q02DX011 (ip), vehicle: water, higher = larger tumour", "result": "55 % of control"}, {"measurement": "T/C", "setting": "endpoint: mean tumor weight, dose: 25.0 mg/kg/injection, schedule: Q02DX011 (ip), vehicle: saline, higher = larger tumour", "result": "65 % of control"}, {"measurement": "T/C", "setting": "endpoint: mean tumor weight, dose: 50.0 mg/kg/injection, schedule: Q02DX011 (ip), vehicle: saline, higher = larger tumour", "result": "36 % of control"}, {"measurement": "T/C", "setting": "endpoint: median tumor weight (est.), dose: 12.5 mg/kg/injection, schedule: Q02DX011 (ip), vehicle: saline, higher = larger tumour", "result": "355 % of control"}, {"measurement": "T/C", "setting": "endpoint: median tumor weight (est.), dose: 12.5 mg/kg/injection, schedule: Q02DX011 (ip), vehicle: water, higher = larger tumour", "result": "47 % of control"}, {"measurement": "T/C", "setting": "endpoint: median tumor weight (est.), dose: 25.0 mg/kg/injection, schedule: Q02DX011 (ip), vehicle: saline, higher = larger tumour", "result": "314 % of control"}, {"measurement": "T/C", "setting": "endpoint: median tumor weight (est.), dose: 50.0 mg/kg/injection, schedule: Q02DX011 (ip), vehicle: saline, higher = larger tumour", "result": "98 % of control"}]}, {"smiles": "COc1cc(NS(C)(=O)=O)ccc1Nc1c2ccccc2nc2ccccc12", "values": [{"measurement": "T/C", "setting": "endpoint: mean tumor weight, dose: 1.88 mg/kg/injection, schedule: Q02DX011 (ip), vehicle: clinical formulation, higher = larger tumour", "result": "68 % of control"}, {"measurement": "T/C", "setting": "endpoint: mean tumor weight, dose: 3.75 mg/kg/injection, schedule: Q02DX011 (ip), vehicle: clinical formulation, higher = larger tumour", "result": "31 % of control"}, {"measurement": "T/C", "setting": "endpoint: median tumor weight (est.), dose: 1.88 mg/kg/injection, schedule: Q02DX011 (ip), vehicle: clinical formulation, higher = larger tumour", "result": "79 % of control"}, {"measurement": "T/C", "setting": "endpoint: median tumor weight (est.), dose: 3.75 mg/kg/injection, schedule: Q02DX011 (ip), vehicle: clinical formulation, higher = larger tumour", "result": "42 % of control"}]}, {"smiles": "Cc1cc(C)nc(NS(=O)(=O)c2ccc(NC(=O)C(Cl)(Cl)Cl)cc2)n1", "values": [{"measurement": "T/C", "setting": "endpoint: median survival time, dose: 50.0 mg/kg/injection, schedule: Q01DX009 (ip), vehicle: saline with Tween-80, higher = longer survival", "result": "88 % of control"}, {"measurement": "T/C", "setting": "endpoint: median survival time, dose: 100.0 mg/kg/injection, schedule: Q01DX009 (ip), vehicle: saline with Tween-80, higher = longer survival", "result": "88 % of control"}, {"measurement": "T/C", "setting": "endpoint: median survival time, dose: 200.0 mg/kg/injection, schedule: Q01DX009 (ip), vehicle: saline with Tween-80, higher = longer survival", "result": "94 % of control"}, {"measurement": "T/C", "setting": "endpoint: median tumor weight (est.), dose: 100.0 mg/kg/injection, schedule: Q01DX009 (ip), vehicle: saline with Tween-80, higher = larger tumour", "result": "171 % of control"}, {"measurement": "T/C", "setting": "endpoint: median tumor weight (est.), dose: 200.0 mg/kg/injection, schedule: Q01DX009 (ip), vehicle: saline with Tween-80, higher = larger tumour", "result": "100 % of control"}]}, {"smiles": "O=NN(CCCl)C(=O)NCCCl", "values": [{"measurement": "T/C", "setting": "endpoint: median survival time, dose: 1.35 mg/kg/injection, schedule: Q04DX009 (ip), vehicle: saline with Tween-80, higher = longer survival", "result": "108 % of control"}, {"measurement": "T/C", "setting": "endpoint: median survival time, dose: 2.7 mg/kg/injection, schedule: Q02DX033 (ip), vehicle: saline, higher = longer survival", "result": "233 % of control"}, {"measurement": "T/C", "setting": "endpoint: median survival time, dose: 2.7 mg/kg/injection, schedule: Q04DX009 (ip), vehicle: saline with Tween-80, higher = longer survival", "result": "121 % of control"}, {"measurement": "T/C", "setting": "endpoint: median survival time, dose: 5.4 mg/kg/injection, schedule: Q02DX033 (ip), vehicle: saline, higher = longer survival", "result": "171 % of control"}, {"measurement": "T/C", "setting": "endpoint: median survival time, dose: 5.4 mg/kg/injection, schedule: Q04DX009 (ip), vehicle: saline with Tween-80, higher = longer survival", "result": "254 % of control"}, {"measurement": "T/C", "setting": "endpoint: median survival time, dose: 6.0 mg/kg/injection, schedule: Q01DX009 (ip), vehicle: saline + alcohol, higher = longer survival", "result": "159 % of control"}, {"measurement": "T/C", "setting": "endpoint: median survival time, dose: 10.8 mg/kg/injection, schedule: Q04DX009 (ip), vehicle: saline with Tween-80, higher = longer survival", "result": "238 % of control"}, {"measurement": "T/C", "setting": "endpoint: median tumor weight (est.), dose: 1.5 mg/kg/injection, schedule: Q01DX009 (ip), vehicle: saline + alcohol, higher = larger tumour", "result": "25 % of control"}]}, {"smiles": "[N-]=[N+]=CC(=O)CCC(N)C(=O)O", "note": "(configuration not stated)", "values": [{"measurement": "T/C", "setting": "endpoint: median survival time, dose: 1.0 mg/kg/injection, schedule: Q04DX005 (ip), vehicle: saline, higher = longer survival", "result": "150 % of control and 159 % of control"}, {"measurement": "T/C", "setting": "endpoint: median survival time, dose: 2.0 mg/kg/injection, schedule: Q04DX005 (ip), vehicle: saline, higher = longer survival", "result": "166 % of control and 167 % of control"}, {"measurement": "T/C", "setting": "endpoint: median survival time, dose: 4.0 mg/kg/injection, schedule: Q04DX005 (ip), vehicle: saline, higher = longer survival", "result": "181 % of control and 183 % of control"}, {"measurement": "T/C", "setting": "endpoint: median survival time, dose: 8.0 mg/kg/injection, schedule: Q04DX005 (ip), vehicle: saline, higher = longer survival", "result": "186 % of control and 188 % of control"}, {"measurement": "T/C", "setting": "endpoint: median survival time, dose: 16.0 mg/kg/injection, schedule: Q04DX005 (ip), vehicle: saline, higher = longer survival", "result": "98 % of control"}]}, {"smiles": "N[C@@H](Cc1ccc(N(CCCl)CCCl)cc1)C(=O)O", "values": [{"measurement": "T/C", "setting": "endpoint: median survival time, dose: 0.75 mg/kg/injection, schedule: Q04DX006 (ip), vehicle: saline, higher = longer survival", "result": "105 % of control"}, {"measurement": "T/C", "setting": "endpoint: median survival time, dose: 1.5 mg/kg/injection, schedule: Q04DX006 (ip), vehicle: saline, higher = longer survival", "result": "111 % of control"}, {"measurement": "T/C", "setting": "endpoint: median survival time, dose: 3.0 mg/kg/injection, schedule: Q02DX033 (ip), vehicle: saline, higher = longer survival", "result": "230 % of control"}, {"measurement": "T/C", "setting": "endpoint: median survival time, dose: 3.0 mg/kg/injection, schedule: Q04DX006 (ip), vehicle: saline, higher = longer survival", "result": "121 % of control"}, {"measurement": "T/C", "setting": "endpoint: median survival time, dose: 3.24 mg/kg/injection, schedule: Q01DX001 (ip), vehicle: saline, higher = longer survival", "result": "154 % of control and 155 % of control"}]}]}
